Laboratory results: patent publication US7625892B2, “Pharmaceutical compositions for the treatment of diseases related to neurotrophines” (Mimetech S.r.l., priority 2002, dated 2009)
Where two headings read alike, the source gives them in different places.

How the values were obtained:
VGF = experiment: Induction of VGF production by PC12 cells (western blot); format: cell-based; conditions: FIG. 3
Experimental: The ability of 3-aza-bicyclo(3.2.1)octanes of formula (I) and their dimeric forms of formula (II) and (III) with substitution reported in Table 1-4 was tested also as ability to induce VGF production by PC12 cells. […] Cells were lysed in 0.25% NP-40 in PBS supplemented with 1 mM PMSF (phenyl-methyl) and 1 mM leupeptin and protein concentration was measured in each sample by Bradford assay. Equal amounts of proteins (30 μg) were loaded in 8% SDS-polyacrilamide gel, electrophoresed, blotted onto nitrocellulose membrane and stained with monoclonal antibodies anti-VGF followed by peroxidase-conjugated anti-mouse IgG. Reaction was visualized by Enhanced Chemiluminiscent Reagent (ECL, Amersham) following the manufacturer instruction.
VGF is induced by the selected compounds as well as by hrNGF.

Trk-A = target: T1, Trk-A (Rattus norvegicus, UniProt P35739); experiment: Trk-A autophosphorylation in PC12 cells; format: cell-based; conditions: 10 μM compound, 30 min, FIG. 5
T1 construct: endogenous in cells; host or cells: PC12 cells
Experimental: To evaluate the ability of the compounds 3-aza-bicyclo(3.2.1)octanes of formula (I) and their dimeric forms of formula (II) and (III) reported in Table 14 to induce Trk-A autophosphorylation, PC12 cells were cultured in medium supplemented with 5% FBS for 48 hours, washed and equilibrated in serum-free medium for 2 hours. 2.5×10^6 cells were then stimulated with 10 μM of selected compounds for 30 min or with 10 nM hrNGF as positive control. Cells were then lysed with 0.5% Triton-X100 in PBS supplemented with protease inhibitors (PMSF, aprotinin, pepstatin, leupeptin) and phosphatase inhibitors. Protein concentrations in each sample was evaluated by Bradford assay and equal amounts (50 μg) of proteins were loaded onto SDS-polyacrilamide gel, electrophoresed and blotted onto nitrocellulose membrane. Membranes was stained with rabbit anti-(Tyr 490 and Tyr 674/675) phosphorylated Trk-A (Cell Signaling Technology) used at the final dilution of 1:1000. After washing, membranes were stained with HRP-conjugated anti-rabbit IgG and the reaction was visualised by using ECL reagents following manufacturing instructions.

[1] = system: NGF specific surface receptor on PC12 cells; experiment: Displacement of 125I-NGF binding to PC12 cells; conditions: 0.1 nM 125I-NGF
Experimental: The ability of selected compounds to displace the binding of NGF to specific surface receptor was evaluated through the classic binding techniques of iodinated ligand.
PC12 cells were detached from tissue flasks with PBS-EDTA, washed with HKR medium (10 mM Hepes, 125 mM NaCl, 4.8 mM KCl, 1.3 mM CaCl2, 1.2 mM MgSO4, 1.2 mM KH2PO4, 1 g/l glucose, 1 g/l BSA) and incubated in triplicate in HKR medium with 0.1 nM ^125I-NGF in the presence or absence of variable concentrations of the compounds to be assayed or of hrNGF as internal standard. Displacement curve was obtained by analyzing the resultant cell bound radioactivity in the presence of the compounds or of hrNGF with adequate software (Graphit 4).

T1 sequence (P35739 33-799): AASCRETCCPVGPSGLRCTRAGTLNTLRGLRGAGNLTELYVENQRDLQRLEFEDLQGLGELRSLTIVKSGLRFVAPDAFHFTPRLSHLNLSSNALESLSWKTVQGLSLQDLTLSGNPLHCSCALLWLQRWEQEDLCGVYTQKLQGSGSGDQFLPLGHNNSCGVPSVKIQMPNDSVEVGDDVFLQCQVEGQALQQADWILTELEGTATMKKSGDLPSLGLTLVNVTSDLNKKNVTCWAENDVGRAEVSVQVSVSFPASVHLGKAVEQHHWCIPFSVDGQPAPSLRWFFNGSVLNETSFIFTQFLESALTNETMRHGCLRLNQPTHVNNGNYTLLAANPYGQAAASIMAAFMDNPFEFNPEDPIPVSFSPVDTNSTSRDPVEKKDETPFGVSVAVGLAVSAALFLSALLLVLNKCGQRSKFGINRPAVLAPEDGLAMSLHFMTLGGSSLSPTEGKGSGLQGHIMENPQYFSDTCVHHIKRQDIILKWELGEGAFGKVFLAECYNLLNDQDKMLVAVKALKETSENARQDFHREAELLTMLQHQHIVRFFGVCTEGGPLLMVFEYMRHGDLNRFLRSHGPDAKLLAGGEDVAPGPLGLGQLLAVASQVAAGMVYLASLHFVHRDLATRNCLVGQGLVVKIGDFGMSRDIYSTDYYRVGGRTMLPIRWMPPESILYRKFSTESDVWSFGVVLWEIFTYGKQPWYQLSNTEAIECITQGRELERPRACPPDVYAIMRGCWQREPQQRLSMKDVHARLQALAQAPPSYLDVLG

| Molecule | VGF production induced (VGF; 10 μM compound) | induction of Trk-A autophosphorylation (Trk-A) | Kd ([1]; FIG. 4a, read-out: Kd (displacement curve, compound used as competitor)) [µM] | VGF production induced (VGF; 10 nM hrNGF) | Kd ([1]; FIG. 4b, read-out: Kd (displacement curve, hrNGF as competitor)) [µM] |
| --- | --- | --- | --- | --- | --- |
| COC(=O)C1OC2OC1C(=O)N(Cc1ccccc1)C2Cc1ccccc1 (centres unmarked) [Compound 9] | induced | able to induce Trk-A autophosphorylation | 0.165 | – | – |
| hrNGF: human recombinant (hr)NGF used as internal standard | – | – | – | induced | 0.000114 |
